Literature values in US20040101478A1, “In vivo methods of determining activity of receptor-type kinase inhibitors” (priority 2003, published 2004).

Target: KDR kinase (Homo sapiens, UniProt P35968)
Conditions: Kasahara et al., 2000, J. Clin. Invest. 106: 1311-1319; cited from earlier work

Chain of KDR kinase (P35968 20-1356): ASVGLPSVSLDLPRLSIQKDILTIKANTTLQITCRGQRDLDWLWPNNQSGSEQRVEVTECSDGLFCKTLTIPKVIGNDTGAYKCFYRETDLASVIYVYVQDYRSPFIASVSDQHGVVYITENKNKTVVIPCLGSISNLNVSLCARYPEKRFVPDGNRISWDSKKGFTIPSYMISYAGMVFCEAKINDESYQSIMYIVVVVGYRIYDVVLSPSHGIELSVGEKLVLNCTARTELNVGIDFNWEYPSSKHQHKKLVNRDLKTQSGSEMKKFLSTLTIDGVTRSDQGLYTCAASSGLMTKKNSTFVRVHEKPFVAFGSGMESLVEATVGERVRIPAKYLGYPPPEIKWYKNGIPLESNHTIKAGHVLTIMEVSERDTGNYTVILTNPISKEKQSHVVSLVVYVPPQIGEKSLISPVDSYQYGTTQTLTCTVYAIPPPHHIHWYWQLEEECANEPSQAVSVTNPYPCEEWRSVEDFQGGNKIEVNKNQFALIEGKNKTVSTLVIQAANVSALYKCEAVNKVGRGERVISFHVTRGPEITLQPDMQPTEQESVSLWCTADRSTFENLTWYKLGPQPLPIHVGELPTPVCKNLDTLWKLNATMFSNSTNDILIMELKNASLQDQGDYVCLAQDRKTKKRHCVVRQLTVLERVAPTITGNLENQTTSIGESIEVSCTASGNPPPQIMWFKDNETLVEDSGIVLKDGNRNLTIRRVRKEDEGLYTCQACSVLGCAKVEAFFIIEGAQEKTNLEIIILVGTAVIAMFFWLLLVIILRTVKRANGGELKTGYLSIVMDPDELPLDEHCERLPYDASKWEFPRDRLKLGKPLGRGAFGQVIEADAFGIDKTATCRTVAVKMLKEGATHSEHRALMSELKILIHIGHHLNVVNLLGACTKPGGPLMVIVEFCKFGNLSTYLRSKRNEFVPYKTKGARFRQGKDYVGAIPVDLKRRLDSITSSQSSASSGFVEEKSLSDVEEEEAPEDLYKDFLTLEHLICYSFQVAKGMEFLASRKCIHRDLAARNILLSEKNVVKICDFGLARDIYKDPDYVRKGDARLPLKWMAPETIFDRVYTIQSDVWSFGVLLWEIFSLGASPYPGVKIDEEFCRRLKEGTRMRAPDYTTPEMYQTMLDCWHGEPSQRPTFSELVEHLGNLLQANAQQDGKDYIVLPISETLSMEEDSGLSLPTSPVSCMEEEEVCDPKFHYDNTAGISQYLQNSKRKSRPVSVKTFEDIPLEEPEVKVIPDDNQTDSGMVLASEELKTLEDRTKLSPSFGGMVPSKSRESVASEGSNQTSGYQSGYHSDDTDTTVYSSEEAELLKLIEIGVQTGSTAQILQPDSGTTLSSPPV

Cc1cc(C)c(/C=C2\C(=O)Nc3ccccc32)[nH]1 [SU5416]
inhibition of VEGF-induced phosphorylation: inhibition of VEGF-induced phosphorylation
